In US8952024B2, “Herbicidal pyrimidone derivatives” (E I du Pont de Nemours and Company, priority 2009, dated 2015):

Tests used:
Assay in all cases: Test B pre-/postemergence plant response
Format in all cases: in vivo
[1] = tested on: downy bromegrass (Bromus tectorum); settings: for Plant response rating, Bromegrass, Downy: Postemergence
Summary of the method: (§1)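 Each species received compound formulated in non-phytotoxic solvent with surfactant, either at planting into a loam and sand blend or as a foliar spray once plants reached 2 to 18 cm in peat-based medium. Plants stayed in the greenhouse 13 to 15 days before visual evaluation against controls, scored 0 (no effect) to 100 (complete control).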

[2] = tested on: large crabgrass (Digitaria sanguinalis); settings: for Plant response rating, Crabgrass, Large: Postemergence
Summary of the method: as §1

[3] = tested on: ragweed (common ragweed, Ambrosia elatior); settings: for Plant response rating, Ragweed: Postemergence
Summary of the method: as §1

[4] = tested on: cocklebur (Xanthium strumarium); settings: for Plant response rating, Cocklebur: Postemergence
Summary of the method: as §1

[5] = tested on: wild oat (Avena fatua); settings: for Plant response rating, Oat, Wild: Postemergence
Summary of the method: as §1

[6] = tested on: bermudagrass (Cynodon dactylon); settings: for Plant response rating, Bermudagrass: Postemergence
Summary of the method: as §1

[7] = tested on: kochia (Kochia scoparia); settings: for Plant response rating, Kochia: Postemergence
Summary of the method: as §1

[8] = tested on: blackgrass (Alopecurus myosuroides); settings: for Plant response rating, Blackgrass: Postemergence
Summary of the method: as §1

[9] = tested on: morningglory (Ipomoea coccinea); settings: for Plant response rating, Morningglory: Postemergence
Summary of the method: as §1

[10] = tested on: wheat (Triticum aestivum); settings: for Plant response rating, Wheat: Postemergence
Summary of the method: as §1

[11] = tested on: woolly cupgrass (Eriochloa villosa); settings: for Plant response rating, Cupgrass, Woolly: Postemergence
Summary of the method: as §1

[12] = tested on: Surinam grass (Brachiaria decumbens); settings: for Plant response rating, Surinam Grass: Postemergence
Summary of the method: as §1

[13] = tested on: Italian ryegrass (Lolium multiflorum); settings: for Plant response rating, Ryegrass, Italian: Postemergence
Summary of the method: as §1

[14] = 31 g ai/ha, 0 to 100 scale (0 no effect, 100 complete control)
[15] = 62 g ai/ha, scale 0 to 100 (0 no effect, 100 complete control)
[16] = 125 g ai/ha, scale 0 to 100 (0 no effect, 100 complete control)
[17] = 250 g ai/ha, scale 0 to 100 (0 no effect, 100 complete control), 13 to 15 days
[18] = 62 g ai/ha, postemergence, 0 is no effect, 100 is complete control, 13 to 15 days

SMILES: COCCn1c(-c2ccsc2)ncc(C(=O)C2=C(O)C3CCC(C3)C2=O)c1=O (stereo not shown) [Compound 228]
- Plant response rating, Bromegrass, Downy [1, 14]: 5
- Plant response rating, Bromegrass, Downy [1, 15]: 5
- Plant response rating, Bromegrass, Downy [1, 16]: 10
- Plant response rating, Bromegrass, Downy [1, 17]: 10
- Plant response rating, Crabgrass, Large [2, 14]: 80
- Plant response rating, Crabgrass, Large [2, 15]: 98
- Plant response rating, Crabgrass, Large [2, 16]: 98
- Plant response rating, Crabgrass, Large [2, 17]: 98
- Plant response rating, Ragweed [3, 14]: 70
- Plant response rating, Ragweed [3, 15]: 80
- Plant response rating, Ragweed [3, 17]: 98
- Plant response rating, Cocklebur [4, 14]: 98
- Plant response rating, Cocklebur [4, 15]: 98
- Plant response rating, Cocklebur [4, 16]: 100
- Plant response rating, Cocklebur [4, 17]: 100
- Plant response rating, Oat, Wild [5, 14]: 0
- Plant response rating, Oat, Wild [5, 15]: 5
- Plant response rating, Oat, Wild [5, 17]: 40
- Plant response rating, Bermudagrass [6, 14]: 80
- Plant response rating, Bermudagrass [6, 15]: 85
- Plant response rating, Bermudagrass [6, 16]: 90
- Plant response rating, Bermudagrass [6, 17]: 95
- Plant response rating, Kochia [7, 14]: 90
- Plant response rating, Kochia [7, 15]: 100
- Plant response rating, Kochia [7, 16]: 100
- Plant response rating, Kochia [7, 17]: 100
- Plant response rating, Blackgrass [8, 14]: 5
- Plant response rating, Blackgrass [8, 15]: 35
- Plant response rating, Blackgrass [8, 16]: 50
- Plant response rating, Blackgrass [8, 17]: 55
- Plant response rating, Morningglory [9, 14]: 100
- Plant response rating, Morningglory [9, 15]: 100
- Plant response rating, Morningglory [9, 16]: 100
- Plant response rating, Morningglory [9, 17]: 100
- Plant response rating, Wheat [10, 14]: 0
- Plant response rating, Wheat [10, 15]: 5
- Plant response rating, Wheat [10, 17]: 35
- Plant response rating, Cupgrass, Woolly [11, 14]: 75
- Plant response rating, Cupgrass, Woolly [11, 15]: 95
- Plant response rating, Cupgrass, Woolly [11, 16]: 95
- Plant response rating, Cupgrass, Woolly [11, 17]: 98
- Plant response rating, Surinam Grass [12, 14]: 75
- Plant response rating, Surinam Grass [12, 15]: 85
- Plant response rating, Surinam Grass [12, 17]: 98
- Plant response rating, Ryegrass, Italian [13, 14]: 0
- Plant response rating, Ryegrass, Italian [13, 15]: 0
- Plant response rating, Ryegrass, Italian [13, 17]: 0

SMILES: CCCCn1c(-c2cccc(Cl)c2)ncc(C(=O)C2=C(O)CCCC2=O)c1=O [Compound 146]
- Bromegrass, Downy plant response rating (0 to 100 scale) [1, 18]: 5
- Plant response rating, Bromegrass, Downy [1, 14]: 0
- Plant response rating, Bromegrass, Downy [1, 16]: 10
- Plant response rating, Bromegrass, Downy [1, 17]: 35
- Crabgrass, Large plant response rating (0 to 100 scale) [2, 18]: 75
- Plant response rating, Crabgrass, Large [2, 14]: 65
- Plant response rating, Crabgrass, Large [2, 16]: 85
- Plant response rating, Crabgrass, Large [2, 17]: 98
- Ragweed plant response rating (0 to 100 scale) [3, 18]: 80
- Plant response rating, Ragweed [3, 14]: 65
- Plant response rating, Ragweed [3, 16]: 98
- Plant response rating, Ragweed [3, 17]: 98
- Cocklebur plant response rating (0 to 100 scale) [4, 18]: 25
- Plant response rating, Cocklebur [4, 14]: 10
- Oat, Wild plant response rating (0 to 100 scale) [5, 18]: 20
- Plant response rating, Oat, Wild [5, 14]: 0
- Plant response rating, Oat, Wild [5, 16]: 50
- Plant response rating, Oat, Wild [5, 17]: 70
- Bermudagrass plant response rating (0 to 100 scale) [6, 18]: 90
- Plant response rating, Bermudagrass [6, 14]: 85
- Plant response rating, Bermudagrass [6, 16]: 100
- Plant response rating, Bermudagrass [6, 17]: 100
- Kochia plant response rating (0 to 100 scale) [7, 18]: 45
- Plant response rating, Kochia [7, 14]: 40
- Plant response rating, Kochia [7, 16]: 85
- Plant response rating, Kochia [7, 17]: 90
- Blackgrass plant response rating (0 to 100 scale) [8, 18]: 30
- Plant response rating, Blackgrass [8, 14]: 5
- Plant response rating, Blackgrass [8, 16]: 35
- Plant response rating, Blackgrass [8, 17]: 50
- Morningglory plant response rating (0 to 100 scale) [9, 18]: 15
- Plant response rating, Morningglory [9, 14]: 0
- Plant response rating, Morningglory [9, 16]: 85
- Plant response rating, Morningglory [9, 17]: 95
- Wheat plant response rating (0 to 100 scale) [10, 18]: 0
- Plant response rating, Wheat [10, 14]: 0
- Plant response rating, Wheat [10, 16]: 15
- Plant response rating, Wheat [10, 17]: 45
- Cupgrass, Woolly plant response rating (0 to 100 scale) [11, 18]: 65
- Plant response rating, Cupgrass, Woolly [11, 14]: 60
- Plant response rating, Cupgrass, Woolly [11, 16]: 65
- Plant response rating, Cupgrass, Woolly [11, 17]: 75
- Surinam Grass plant response rating (0 to 100 scale) [12, 18]: 65
- Plant response rating, Surinam Grass [12, 14]: 65
- Plant response rating, Surinam Grass [12, 16]: 75
- Plant response rating, Surinam Grass [12, 17]: 75
- Ryegrass, Italian plant response rating (0 to 100 scale) [13, 18]: 5
- Plant response rating, Ryegrass, Italian [13, 14]: 5
- Plant response rating, Ryegrass, Italian [13, 16]: 10
- Plant response rating, Ryegrass, Italian [13, 17]: 15
